# Test results from paper PMC2818674 (Bioorganic & medicinal chemistry, 2009).
# Legend:
# [1] = PAMPA permeability assay; assay type: in vitro ADME; settings: pH 7.4
# [2] = Plasma stability assay; assay type: in vitro ADME, rat; settings: for remaining at 1 h, 1 μM: rat, fresh rat plasma; for plasma stability: after 1 h of incubation in rat plasma
# [3] = tested on: Akt; experiment: Selectivity profile: Akt; assay type: biochemical; settings: for IC50: read-out: Akt, IC50, selectivity profile
SMILES,"Cell permeability, PAMPA % Flux [1] [%]","remaining at 1 h, 1 μM [2] [%]",plasma stability [2],IC50 [3] [µM],activity against the kinase Akt [3]
"O=[N+]([O-])c1cnc(Sc2nnc(O)n2-c2ccc3c(c2)OCCO3)s1 [BI-78D3, reference compound]",30,42,–,–,–
"CCCNc1nnc(Sc2ncc([N+](=O)[O-])s2)s1 [BI-90H6, 5-(5-nitrothiazol-2-ylthio)-N-propyl-1,3,4-thiadiazol-2-amine]",49.8,35,degraded rapidly,> 100,–
"COCCNc1nnc(Sc2ncc([N+](=O)[O-])s2)s1 [BI-90H9, N-(2-methoxyethyl)-5-(5-nitrothiazol-2-ylthio)-1,3,4-thiadiazol-2-amine]",76.3,68,–,> 100,practically inactive
"COc1ccc(CCNc2nnc(Sc3ncc([N+](=O)[O-])s3)s2)cc1OC [BI-90H10, N-(3,4-dimethoxyphenethyl)-5-(5-nitrothiazol-2-ylthio)-1,3,4-thiadiazol-2-amine]",5.5,0,degraded rapidly,> 100,–
"CCC(C)Nc1nnc(Sc2ncc([N+](=O)[O-])s2)s1 (stereo not drawn) [BI-98A10, N-sec-butyl-5-(5-nitrothiazol-2-ylthio)-1,3,4-thiadiazol-2-amine]",–,–,–,> 100,–
